# Measured values as given in patent US7279290B2, “ATM kinase compositions and methods” (St. Jude Children's Research Hospital, priority 2002, dated 2007).
# Legend:
# ATM protein = experiment: ATM phosphorylation after chromatin-modifying treatments (immunoblot and immunofluorescence); format: cell-based, human
# From the text: Since such a high fraction of cellular ATM becomes phosphorylated so rapidly in the presence of so few DNA strand breaks, it is unlikely that the ATM oligomers could require direct binding to DNA strand breaks for activation and autophosphorylation. Therefore, the introduction of DNA strand breaks may cause a change in the nucleus that activates ATM at a distance from the break itself. As DNA strand breaks introduced by ionizing irradiation rapidly alter topological constraints on DNA (Roti Roti and Wright (1987) Cytometry 8:461-467; Jaberaboansari, et al. (1988) Radiat. Res. 114:94-104; Malyapa, et al. (1996) Int. J. Radiat. Oncol. Biol. Phys. 35:963-973),alterations in some aspect of chromatin structure fit the criteria of being a rapid change and being able to act a distance in the nucleus. Chromatin and chromosome structures can be altered in the absence of DNA breaks by hypotonic conditions (Earnshaw, and Laemmli (1983) J. Cell Biol. 96:84-93; Jeppesen, et al. (1992) Chromosoma 101:322-332), exposure to chloroquine (Krajewski (1995) FEBS Letters 361:149-152; Jensen, et al. (1994) Cancer Res. 54:2959-2963; Snyder (2000) Environ. Mol. Mutagen. 35:13-21), or treatment with histone deaceylase inhibitors (Krajewski (1999) J. Biomol. Struct. Dynam. 16:1097-1106; Yoshida, et al. (1995) BioEssays 17:423-430; Kuo and Allis (1998) BioEssays 20:615-626). […]
# Ser^1981 in ATM = experiment: Ser^1981 phosphorylation of ATM in primary fibroblasts after treatment with agents; format: cell-based, human; conditions: for Phosphorylation of ATM: over one and five hours after exposure
# Description: Another aspect of the present invention provides a method of detecting DNA damage in a cell by identifying the activation state of ATM kinase.
# 293T cells, HeLa cells and 1070SK primary human foreskin fibroblasts (HFF) (>passage 20, ATCC) were cultured in Dulbecco's Modification of Eagle's Medium (DMEM) supplemented with 10% fetal bovine serum (FBS). GM00637 and GM09607 fibroblasts were grown in DMEM containing 15% FBS. GM00536 lymphoblast cells were grown in RPMI supplemented with 10% fetal calf serum. 293T cells were transfected using FUGENE™ (Roche, Indianapolis, Ind.) and HeLa cells, GM00637 and GM09607 with LIPOFECTAMINE™ (INVITROGEN™ Corp., Carlsbad, Calif.). Metabolic labeling was performed by pre-equilibrating cells in phosphate-free media for three hours prior to the addition of 0.5 mCi/ml ^32P orthophosphate (PerkinElmer Life Sciences Inc., Boston, Mass.) for 30 minutes. Inhibition of DNA synthesis and analysis of G2/M checkpoint after irradiation was assessed using well-known methods (e.g., Xu, et al. (2001) Mol. Cell. Biol. 21:3445-3450). Wortmannin was added to samples on ice 15 minutes prior to reactions and 5 μM manganese and 1 μg sonicated calf thymus DNA were present or absent. Proteins were crosslinked by incubating cells in formaldehyde/phosphate-buffered saline (PBS) for 10 minutes at room temperature. Formaldehyde was washed out using PBS containing 100 mM glycine and immunoprecipitation was then performed. Hypotonic swelling was performed for 1 hour in PBS containing 0.45% glucose (w/v) and 1% FBS with the NaCl concentration reduced to either 50 mM or 100 mM. HFF were incubated with chloroquine in DMEM containing 10% FBS for four hours. Prior to an eight hour incubation with Trichostatin A, HFF was grown for 24 hours in DMEM containing 0.1% FBS. […] For immunofluoresence experiments, HFF grown on glass slides were fixed in 50% methanol/50% acetone for two hours at −20° C. Cells were incubated with primary antibodies at 1/1000 (H2AXγ; Upstate, Charlottesville, Va.) and secondary antibodies at 1/500 (Cy3 anti-mouse and FITC anti-rabbit; Jackson ImmunoResearch Laboratories, Inc., West Grove, Pa.) in PBS, 10% FBS for one hour.
# Mammalian cell extracts were prepared in buffer A. Cleared supernatants were immunoprecipitated with anti-FLAG® M2 sepharose or anti-ATM D1611 (Alligood, et al. (2000) Hybridoma 19:317-321) and protein A/G agarose. Beads were washed twice with buffer A and twice with RIPA buffer. Co-immunoprecipitation was performed in buffer B: 50 mM Tris (pH 7.5), 150 mM NaCl, 0.5% TWEEN® 20, 0.2% NP-40, 50 mM NaF, 1 mM AEBSF, and 1x protease inhibitor mixture (Roche, Indianapolis, Ind.).
# Western blotting was performed with anti-FLAG® M5 (Sigma-Aldrich, St. Louis, Mo.), anti-ATM MAT3, anti-GST (Amersham Pharmacia Biotech, Uppsala, Sweden) or anti-6x-His (Sigma-Aldrich, St. Louis, Mo.).
# HeLa cells = experiment: Radioprotection assay (colony formation after irradiation); format: cell-based; conditions: for Average Number of Colonies*: 2 μg/ml chloroquine one hour, washed one hour, 1000 cells plated
# Description: HeLa cells were treated with 2 μg/ml of chloroquine for one hour, washed for one hour, and irradiated at 2 or 6 Gy. Subsequently, 1000 cells were plated and assessed for colony formation.
# HFF = experiment: Cell death of HFF during incubation; conditions: HFF incubated with chloroquine four hours
# Description: 293T cells, HeLa cells and 1070SK primary human foreskin fibroblasts (HFF) (>passage 20, ATCC) were cultured in Dulbecco's Modification of Eagle's Medium (DMEM) supplemented with 10% fetal bovine serum (FBS). GM00637 and GM09607 fibroblasts were grown in DMEM containing 15% FBS. GM00536 lymphoblast cells were grown in RPMI supplemented with 10% fetal calf serum. 293T cells were transfected using FUGENE™ (Roche, Indianapolis, Ind.) and HeLa cells, GM00637 and GM09607 with LIPOFECTAMINE™ (INVITROGEN™ Corp., Carlsbad, Calif.). Metabolic labeling was performed by pre-equilibrating cells in phosphate-free media for three hours prior to the addition of 0.5 mCi/ml ^32P orthophosphate (PerkinElmer Life Sciences Inc., Boston, Mass.) for 30 minutes. Inhibition of DNA synthesis and analysis of G2/M checkpoint after irradiation was assessed using well-known methods (e.g., Xu, et al. (2001) Mol. Cell. Biol. 21:3445-3450). Wortmannin was added to samples on ice 15 minutes prior to reactions and 5 μM manganese and 1 μg sonicated calf thymus DNA were present or absent. Proteins were crosslinked by incubating cells in formaldehyde/phosphate-buffered saline (PBS) for 10 minutes at room temperature. Formaldehyde was washed out using PBS containing 100 mM glycine and immunoprecipitation was then performed. […]
# Ser^1981 of ATM = experiment: Ser^1981 phosphorylation following irradiation of human diploid fibroblasts; format: cell-based
# Description: Autophosphorylation of Ser^1981 was determined using glutathione-S-transferase (GST) fusion proteins containing various lengths of ATM as substrates of the ATM kinase in in vitro kinase reactions. A polypeptide containing the appropriate serine residue at 1981 was an excellent in vitro substrate, whereas a Ser^1981→Ala mutant was not phosphorylated by ATM whether the read-out was incorporation of radioactive phosphate or binding by the α-Ser^1981-P antibody. […] This concentration of wortmannin inhibits both ATM and DNA-dependent protein kinase (DNA-PK), but not ataxia- and Rad3-related protein (ATR), in vivo (Sarkaria, et al. (1998) Cancer Res. 58:4375-4382). To exclude DNA-PK as a responsible kinase, phosphorylation of Ser^1981 was determined in a cell line lacking DNA-PK activity. The kinetics and levels of IR-induced phosphorylation of Ser^1981 were identical to those in a similar cell line containing DNA-PK activity.
# [1] = one hour following exposure, 2 nM camptothecin, 17 nM etoposide or 0.1% H2O2
smiles,measurement,setting,value
"CC(/C=C/C(=O)NO)=C\[C@@H](C)C(=O)c1ccc(N(C)C)cc1 [Trichostatin, Trichostatin A]",phosphorylation of ATM protein,ATM protein,induced rapid and diffuse phosphorylation
CC[C@@]1(O)C(=O)OCc2c1cc1n(c2=O)Cc2cc3ccccc3nc2-1 [camptothecin],Phosphorylation of Ser^1981 in ATM,Ser^1981 in ATM; [1],detected
NC(=O)NO [hydroxyurea],Phosphorylation of ATM,Ser^1981 in ATM,Little or no phosphorylation
CCN(CC)CCCC(C)Nc1ccnc2cc(Cl)ccc12 (stereo not shown) [chloroquine],Average Number of Colonies*,HeLa cells; irradiated at 2 Gy,580
same,Average Number of Colonies*,HeLa cells; irradiated at 6 Gy,129
same,increase in cell survival by treatment prior to irradiation,"HeLa cells; HeLa cells, chloroquine prior to irradiation",30%
same,phosphorylation of ATM protein,ATM protein,induced rapid and diffuse phosphorylation
same,cell death,HFF,No cell death was observed
C[C@@]1(CO)[C@H](O)CC[C@@]2(C)[C@H]1CC[C@H]1C[C@@H]3C[C@@]12CC[C@]3(O)CO [aphidicolin],Phosphorylation of ATM,Ser^1981 in ATM,Little or no phosphorylation
Cc1cn([C@H]2C[C@H](O)[C@@H](CO)O2)c(=O)[nH]c1=O [thymidine],Phosphorylation of ATM,Ser^1981 in ATM,Little or no phosphorylation
OO [H2O2],Phosphorylation of Ser^1981 in ATM,Ser^1981 in ATM; [1],detected
COC[C@H]1OC(=O)c2coc3c2[C@@]1(C)C1=C(C3=O)[C@@H]2CCC(=O)[C@@]2(C)C[C@H]1OC(C)=O [wortmannin],concentration effectively inhibiting phosphorylation of Ser^1981,Ser^1981 of ATM,≥ 20 µM
"COS(C)(=O)=O [MMS, methlymethanesulfonate]",Phosphorylation of Ser^1981 in ATM,"Ser^1981 in ATM; five hours after treatment, compared with one hour",more prominent phosphorylation
